# Laboratory results: ChEMBL document CHEMBL1126278, “New neplanocin analogues. 1. Synthesis of 6'-modified neplanocin A derivatives as broad-spectrum antiviral agents” (J Med Chem, 1992)
# What was measured:
# HEL [1] = assay: Inhibitory effect on replication of DNA virus TK-VZV (07-1) on HEL cell line.; type: functional, cell-based; settings: Homo sapiens
# Vero [2] = assay: Inhibitory effect on replication of RNA virus TV in Vero cell line.; type: functional, cell-based; settings: Chlorocebus sabaeus
# HEL [3] = assay: Inhibitory effect on replication of DNA virus CMV (Davis) on HEL cell line.; type: functional, cell-based; settings: Homo sapiens
# [4] = Inhibitory effect on replication of DNA virus HSV-1 (KOS) in PRK cell line.; type: functional, cell-based; settings: Oryctolagus cuniculus
# HeLa [5] = assay: Inhibitory effect on replication of RNA virus coxsB-4 in HeLa cell line.; type: functional, cell-based; settings: Homo sapiens
# PRK [6] = assay: Inhibitory effect on replication of DNA virus Cell morphology on PRK cell line; type: functional, cell-based; settings: Oryctolagus cuniculus
# Vero [7] = assay: Inhibitory effect on replication of RNA virus PV-3 in Vero cell line.; type: functional, cell-based; settings: Chlorocebus sabaeus
# MDCK [8] = assay: Inhibitory effect on replication of RNA virus cell morphology in MDCK cell line.; type: functional, cell-based; settings: Canis lupus familiaris
# Vero [9] = assay: Inhibitory effect on replication of RNA virus RNA synthesis in Vero cell line.; type: functional, cell-based; settings: Chlorocebus sabaeus
# MT4 [10] = assay: Inhibitory effect on replication of RNA virus cell growth in MT-4 cell line.; type: functional, cell-based; settings: Homo sapiens
# Vero [11] = assay: Inhibitory effect on replication of RNA virus SFV in Vero cell line; type: functional, cell-based; settings: Chlorocebus sabaeus
# Vero [12] = assay: Inhibitory effect on replication of RNA virus measles on Vero cell line.; type: functional, cell-based; settings: Chlorocebus sabaeus
# Vero [13] = assay: Inhibitory effect on replication of RNA virus coxsB-4 in Vero cell line; type: functional, cell-based; settings: Chlorocebus sabaeus
# HEL [14] = assay: Inhibitory effect on replication of DNA virus VZV (YS) on HEL cell line.; type: functional, cell-based; settings: Homo sapiens
# PRK [15] = assay: Inhibitory effect on replication of DNA virus VV on PRK cell line.; type: functional, cell-based; settings: Oryctolagus cuniculus
# Vero [16] = assay: Inhibitory effect on replication of RNA virus protein synthesis in Vero cell line.; type: functional, cell-based; settings: Chlorocebus sabaeus
# MT4 [17] = assay: Inhibitory effect on replication of RNA virus HIV-2 in MT-4 cell line.; type: functional, cell-based; settings: Homo sapiens
# Vero [18] = assay: Inhibitory effect on replication of RNA virus SV in Vero cell line.; type: functional, cell-based; settings: Chlorocebus sabaeus
# [19] = (§1) Inhibitory effect on replication of DNA virus HSV-2 (G) in PRK cell line.; type: functional, cell-based; settings: Oryctolagus cuniculus
# HeLa [20] = assay: Inhibitory effect on replication of RNA virus RSV in HeLa cell line; type: functional, cell-based; settings: Homo sapiens
# Vero [21] = assay: Inhibitory effect on replication of RNA virus reo-1 in Vero cell line.; type: functional, cell-based; settings: Chlorocebus sabaeus
# Vero [22] = assay: Inhibitory effect on replication of RNA virus cell morphology in Vero cell line.; type: functional, cell-based; settings: Chlorocebus sabaeus
# MT4 [23] = assay: Inhibitory effect on replication of RNA virus HIV-1 in MT-4 cell line.; type: functional, cell-based; settings: Homo sapiens
# HEL [24] = assay: Inhibitory effect on replication of DNA virus TK-VZV (YSR) on HEL cell line.; type: functional, cell-based; settings: Homo sapiens
# PRK [25] = assay: Inhibitory effect on replication of RNA virus VSV in PRK cell line.; type: functional, cell-based; settings: Oryctolagus cuniculus
# HEL [26] = assay: Inhibitory effect on replication of DNA virus VZV (Oka) on HEL cell line.; type: functional, cell-based; settings: Homo sapiens
# HeLa [27] = assay: cells; settings: Homo sapiens
# MDCK [28] = assay: cells; settings: Canis lupus familiaris
# MDCK [29] = assay: cells; settings: Canis lupus familiaris; remark: listed apart in the source
# HeLa [30] = assay: Inhibitory effect on replication of RNA virus VSV in HeLa cell line.; type: functional, cell-based; settings: Homo sapiens
# HEL [31] = assay: Inhibitory effect on replication of DNA virus CMV (AD-169) on HEL cell line.; type: functional, cell-based; settings: Homo sapiens
# Vero [32] = assay: Inhibitory effect on replication of RNA virus JV in Vero cell line.; type: functional, cell-based; settings: Chlorocebus sabaeus
# HeLa [33] = assay: Inhibitory effect on replication of RNA virus cell morphology in HeLa cell line.; type: functional, cell-based; settings: Homo sapiens
# Adenosylhomocysteinase = Adenosylhomocysteinase (Mus musculus, UniProt P50247); assay: Inhibitory effect against L929 Cell S-adenosyl-L-homocysteine hydrolase
# Sequence of Adenosylhomocysteinase (P50247 whole entry): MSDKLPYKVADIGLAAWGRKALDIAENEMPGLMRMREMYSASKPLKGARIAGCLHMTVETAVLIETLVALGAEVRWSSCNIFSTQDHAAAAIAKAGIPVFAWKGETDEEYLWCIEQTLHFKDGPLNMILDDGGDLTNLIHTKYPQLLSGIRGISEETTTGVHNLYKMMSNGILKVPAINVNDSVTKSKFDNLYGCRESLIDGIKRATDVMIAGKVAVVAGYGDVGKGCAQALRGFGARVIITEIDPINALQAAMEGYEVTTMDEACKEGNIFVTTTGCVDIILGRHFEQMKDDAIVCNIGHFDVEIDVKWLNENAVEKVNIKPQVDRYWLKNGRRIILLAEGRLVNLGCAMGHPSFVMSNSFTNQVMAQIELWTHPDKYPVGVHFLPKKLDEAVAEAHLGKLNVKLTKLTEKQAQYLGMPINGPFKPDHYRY
# PRK [34] = assay: Inhibitory effect on replication of RNA virus cell morphology in PRK cell line.; type: functional, cell-based; settings: Oryctolagus cuniculus
# ESM [35] = assay: Inhibitory effect on replication of RNA virus cell morphology in ESM cell line.; type: functional, cell-based
# ESM [36] = assay: Inhibitory effect on replication of DNA virus VV on ESM cell line.; type: functional, cell-based
# ESM [37] = assay: Inhibitory effect on replication of DNA virus HSV-2 (G) in ESM cell line; type: functional, cell-based
# [38] = as §1; type: functional, cell-based, herpes simplex virus; settings: Human alphaherpesvirus 1, PRK
# ESM [39] = assay: Inhibitory effect on replication of DNA virus TK-HSV-1 (VMW 1837) on ESM cell line.; type: functional, cell-based
# ESM [40] = assay: Inhibitory effect on replication of RNA virus VSV in ESM cell line.; type: functional, cell-based
# ESM [41] = assay: Inhibitory effect on replication of DNA virus Cell morphology on ESM cell line; type: functional, cell-based
# ESM [42] = assay: Inhibitory effect on replication of DNA virus TK-HSV-1 (B2006) on ESM cell line.; type: functional, cell-based
# ESM [43] = assay: Inhibitory effect on replication of DNA virus HSV-1 (KOS) in ESM cell line; type: functional, cell-based
# HEL [44] = assay: Inhibitory effect on replication of DNA virus Cell growth on HEL cell line.; type: functional, cell-based; settings: Homo sapiens
SMILES,IC50 (HEL [1]),IC50 (Vero [2]),IC50 (HEL [3]),IC50 [4],IC50 (HeLa [5]),IC50 (PRK [6]),IC50 (Vero [7]),IC50 (MDCK [8]),IC50 (Vero [9]),IC50 (MT4 [10]),IC50 (Vero [11]),IC50 (Vero [13]),IC50 (HEL [14]),IC50 (PRK [15]),IC50 (Vero [16]),IC50 (MT4 [17]),IC50 (Vero [18]),IC50 (Vero [21]),IC50 (Vero [22]),IC50 (MT4 [23]),also measured
CC1=C[C@@H](n2cnc3c(N)ncnc32)[C@H](O)[C@@H]1O,4 µg/mL,0.4 µg/mL,1.5 µg/mL,> 200 µg/mL,> 200 µg/mL,> 400 µg/mL,20 µg/mL,> 100 µg/mL,1.7 µg/mL,2.5 µg/mL,> 200 µg/mL,> 200 µg/mL,2 µg/mL,0.7 µg/mL,4.7 µg/mL,> 1.5 µg/mL,> 200 µg/mL,0.7 µg/mL,40 µg/mL,> 1.5 µg/mL,IC50 (Vero [12]): 4 µg/mL; IC50 [19]: > 200 µg/mL; IC50 (HeLa [20]): 10 µg/mL; IC50 (HEL [24]): 10 µg/mL; IC50 (PRK [25]): 0.7 µg/mL; IC50 (HEL [26]): 20 µg/mL; IC50 (HeLa [27]): > 200 µg/mL; IC50 (MDCK [28]): > 100 µg/mL; IC50 (MDCK [29]): > 100 µg/mL; IC50 (HeLa [30]): 7 µg/mL; IC50 (HEL [31]): 2.5 µg/mL; IC50 (Vero [32]): 0.4 µg/mL; IC50 (HeLa [33]): > 400 µg/mL; Ki (Adenosylhomocysteinase): 150 nM; IC50 (PRK [34]): > 400 µg/mL
C[C@@H](O)C1=C[C@@H](n2cnc3c(N)ncnc32)[C@H](O)[C@@H]1O,38 µg/mL,0.5 µg/mL,0.03 µg/mL,> 400 µg/mL,> 400 µg/mL,> 400 µg/mL,0.1 µg/mL,> 100 µg/mL,0.1 µg/mL,0.09 µg/mL,> 200 µg/mL,> 200 µg/mL,65 µg/mL,0.1 µg/mL,56 µg/mL,> 0.03 µg/mL,4 µg/mL,0.04 µg/mL,> 400 µg/mL,> 0.03 µg/mL,IC50 (ESM [35]): > 400 µg/mL; IC50 (ESM [36]): 0.04 µg/mL; IC50 (ESM [37]): > 400 µg/mL; IC50 [38]: > 200 µg/mL; IC50 (ESM [39]): 70 µg/mL; IC50 (ESM [40]): 0.07 µg/mL; IC50 (HEL [24]): 6 µg/mL; IC50 (PRK [25]): 0.1 µg/mL; IC50 (HEL [26]): 21 µg/mL; IC50 (HeLa [27]): > 400 µg/mL; IC50 (ESM [41]): > 400 µg/mL; IC50 (MDCK [28]): > 100 µg/mL; IC50 (MDCK [29]): > 100 µg/mL; IC50 (HEL [31]): 0.06 µg/mL; IC50 (Vero [32]): 0.4 µg/mL; IC50 (HeLa [33]): > 400 µg/mL; IC50 (ESM [42]): 70 µg/mL; IC50 (ESM [43]): > 400 µg/mL; IC50 (HEL [44]): > 200 µg/mL; IC50 (PRK [34]): > 400 µg/mL
